Experimental data published in ChEMBL document CHEMBL1201862, “PubChem BioAssay data set” (2004).
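Assay format: 96-well plates, 48-hour exposure. At the GI50, growth is halved.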 Calls of active or inactive are those of the source. Rule as the data show it: active = GI50 up to about 1.1 µM and inactive = higher.

What was measured:
Experiment in all cases: growth of human tumour cells (NCI), 48 h
KM12 = tested on: KM12
RXF 393 = tested on: RXF 393
SF-268 = tested on: SF-268
OVCAR-8 = tested on: OVCAR-8
OVCAR-5 = tested on: OVCAR-5
SK-OV-3 = tested on: SK-OV-3
UACC-62 = tested on: UACC-62
SNB-75 = tested on: SNB-75
SK-MEL-2 = tested on: SK-MEL-2
A549 = tested on: A549
U-251 = tested on: U-251
M14 = tested on: M14
K562 = tested on: K562
CCRF-CEM = tested on: CCRF-CEM
CAKI-1 = tested on: CAKI-1
SK-MEL-5 = tested on: SK-MEL-5
MOLT-4 = tested on: MOLT-4

SMILES | GI50 (KM12) | GI50 (RXF 393) | GI50 (SF-268) | GI50 (OVCAR-8) | GI50 (OVCAR-5) | GI50 (SK-OV-3) | GI50 (UACC-62) | GI50 (SNB-75) | GI50 (SK-MEL-2) | GI50 (A549) | GI50 (U-251) | GI50 (M14) | GI50 (K562) | GI50 (CCRF-CEM) | GI50 (CAKI-1) | GI50 (SK-MEL-5) | GI50 (MOLT-4)
COc1ccc(OC)c(/C=N/N=C(\N)NO)c1 | 22.4 µM (inactive) | 39.5 µM (inactive) | 23.3 µM (inactive) | 27.7 µM (inactive) | 27.4 µM (inactive) | 30.7 µM (inactive) | 4.61 µM (inactive) | 72.4 µM (inactive) | 42.3 µM (inactive) | 8.22 µM (inactive) | 34.4 µM (inactive) | 20.1 µM (inactive) | 6.81 µM (inactive) | 16.6 µM (inactive) | 8.04 µM (inactive) |  | 
c1ccc(C(c2ccccc2)c2ccncc2)cc1 | > 100 µM (inactive) |  | > 100 µM (inactive) | > 100 µM (inactive) | > 100 µM (inactive) | > 100 µM (inactive) | > 100 µM (inactive) | 18 µM (inactive) | > 100 µM (inactive) | > 100 µM (inactive) | > 100 µM (inactive) | > 100 µM (inactive) | > 100 µM (inactive) | > 100 µM (inactive) | > 100 µM (inactive) | > 100 µM (inactive) | > 100 µM (inactive)
Cc1cc(C)nc(NS(=O)(=O)c2ccc(Nc3c4ccccc4nc4c(C(=O)Nc5ccc(S(N)(=O)=O)cc5)cccc34)cc2)n1 | 63.7 µM (inactive) | 38 µM (inactive) | 50.9 µM (inactive) | > 100 µM (inactive) | > 100 µM (inactive) | 11.8 µM (inactive) | 66.1 µM (inactive) | 25.8 µM (inactive) | > 100 µM (inactive) | > 100 µM (inactive) | 58.3 µM (inactive) | 71.6 µM (inactive) | 72.4 µM (inactive) | > 100 µM (inactive) | > 100 µM (inactive) | > 100 µM (inactive) | > 100 µM (inactive)
CC(C)(C)c1ccc(OCCOCCOc2ccc(C(C)(C)C)cc2S(=O)(=O)Nc2ccc([N+](=O)[O-])cc2)c(S(=O)(=O)Nc2ccc([N+](=O)[O-])cc2)c1 | 7.53 µM (inactive) | 19.2 µM (inactive) | 8.45 µM (inactive) | 9.95 µM (inactive) | > 100 µM (inactive) | > 100 µM (inactive) | 6.21 µM (inactive) | 56.6 µM (inactive) | 8.07 µM (inactive) | 4.42 µM (inactive) | 7.28 µM (inactive) | 8.28 µM (inactive) | 6.21 µM (inactive) | 5.42 µM (inactive) | 9.31 µM (inactive) | 6.17 µM (inactive) | 3.01 µM (inactive)
CC(=O)OC1CCC2C(=CCC3C2(C)C(=O)CC2(C)C(C4(C)OC(C(C)C)=CC4=O)C(O)CC32C)C1(C)C (stereo unspecified) | > 10 µM (inactive) |  | 28.1 µM (inactive) | 43.7 µM (inactive) | > 100 µM (inactive) | 35.7 µM (inactive) | 19.1 µM (inactive) | 28.4 µM (inactive) | 27.1 µM (inactive) | 31.6 µM (inactive) | 39.4 µM (inactive) | 23.3 µM (inactive) | 35.5 µM (inactive) | 31 µM (inactive) | 45 µM (inactive) | 23.5 µM (inactive) | 32.4 µM (inactive)
CC(O)C(NC(=O)c1ccccc1)C(=O)N(Cc1ccccc1)Cc1ccccc1 (stereo unspecified) | > 100 µM (inactive) |  | > 100 µM (inactive) | > 100 µM (inactive) | > 100 µM (inactive) | > 100 µM (inactive) | > 100 µM (inactive) | 47.5 µM (inactive) | > 100 µM (inactive) | 80.9 µM (inactive) | > 100 µM (inactive) | > 100 µM (inactive) | 97.9 µM (inactive) | > 100 µM (inactive) | 18.2 µM (inactive) | 60 µM (inactive) | 61.4 µM (inactive)
O=C(Nc1ccccc1[N+](=O)[O-])C(=O)C(C(=O)c1ccccc1-c1ccccc1)C1OC(=O)c2ccccc21 (stereo unspecified) | 16.2 µM (inactive) | 12.1 µM (inactive) | 14.3 µM (inactive) | 14.8 µM (inactive) | 20.3 µM (inactive) | 30.8 µM (inactive) | 16 µM (inactive) | 16.9 µM (inactive) | 16.7 µM (inactive) | 24.5 µM (inactive) | 11.6 µM (inactive) | 15.5 µM (inactive) | 17.2 µM (inactive) | 13.5 µM (inactive) | 35.6 µM (inactive) | 18 µM (inactive) | 16 µM (inactive)
Cc1ccc(Sc2ccccc2N)cc1 | 25.5 µM (inactive) | 18.7 µM (inactive) | 21 µM (inactive) | 52.2 µM (inactive) | > 100 µM (inactive) | > 100 µM (inactive) | 53.2 µM (inactive) | 44.8 µM (inactive) | 35.7 µM (inactive) | 39.3 µM (inactive) | 67.3 µM (inactive) | 32.7 µM (inactive) | 37.4 µM (inactive) | 23.2 µM (inactive) | 21.6 µM (inactive) | 20.7 µM (inactive) | 18.4 µM (inactive)
Oc1cc2c(cc1O)-c1[nH]ncc1CC2 | 49.5 µM (inactive) |  | 25.6 µM (inactive) | 37.9 µM (inactive) | 63.4 µM (inactive) | 22.5 µM (inactive) | 27.8 µM (inactive) | 16.6 µM (inactive) | 64.9 µM (inactive) | 42.4 µM (inactive) | 18.2 µM (inactive) | 72.4 µM (inactive) | 32.7 µM (inactive) | 11.4 µM (inactive) | 33.6 µM (inactive) | 35.1 µM (inactive) | 22.4 µM (inactive)
O=C(Nc1nc2ncn(CCI)c2c(=O)[nH]1)c1ccccc1 | > 100 µM (inactive) | 26.9 µM (inactive) | 21.5 µM (inactive) | 31.2 µM (inactive) | > 100 µM (inactive) | 33.7 µM (inactive) | 53.8 µM (inactive) | 20.5 µM (inactive) | > 53.5 µM (inactive) | 76 µM (inactive) | 28.3 µM (inactive) | > 100 µM (inactive) | > 100 µM (inactive) | > 100 µM (inactive) | > 100 µM (inactive) | > 100 µM (inactive) | > 100 µM (inactive)
Cc1cc2occ(-c3ccc(Cl)cc3)c2c(=O)o1 | > 100 µM (inactive) | > 100 µM (inactive) | > 100 µM (inactive) | > 100 µM (inactive) | > 100 µM (inactive) | > 100 µM (inactive) | > 100 µM (inactive) | 55.7 µM (inactive) | > 100 µM (inactive) | > 100 µM (inactive) | > 100 µM (inactive) | 88.1 µM (inactive) | > 100 µM (inactive) | > 100 µM (inactive) | 98.6 µM (inactive) | > 100 µM (inactive) | 67.9 µM (inactive)
CC(Oc1ccc(OCC2CCCCC2)cc1)C(=O)O (stereo unspecified) | > 100 µM (inactive) |  | > 100 µM (inactive) | > 100 µM (inactive) |  | > 100 µM (inactive) | > 100 µM (inactive) | > 100 µM (inactive) | > 100 µM (inactive) | > 100 µM (inactive) | > 100 µM (inactive) | > 100 µM (inactive) | > 100 µM (inactive) | > 100 µM (inactive) |  | > 100 µM (inactive) | > 100 µM (inactive)
CCc1cccc(C(C)C)c1NC(=O)CCl | > 100 µM (inactive) |  | > 100 µM (inactive) |  |  | > 100 µM (inactive) | 45.1 µM (inactive) | 37.5 µM (inactive) | > 100 µM (inactive) | > 100 µM (inactive) | 85.1 µM (inactive) | 46.3 µM (inactive) | > 100 µM (inactive) | 37.1 µM (inactive) | > 100 µM (inactive) |  | > 100 µM (inactive)
Cc1c(-c2coc(-c3ccc(Cl)cc3)n2)c(=O)n(-c2ccccc2)n1C | > 100 µM (inactive) |  | > 100 µM (inactive) | > 100 µM (inactive) | > 100 µM (inactive) | > 100 µM (inactive) | > 100 µM (inactive) | > 100 µM (inactive) | > 100 µM (inactive) | > 100 µM (inactive) | > 100 µM (inactive) | > 100 µM (inactive) |  | > 100 µM (inactive) |  | > 100 µM (inactive) | > 100 µM (inactive)
C[C@H]1C=C2C(=O)O[C@H]3CC[C@@H](C1)[C@@]23O | 2.92 µM (inactive) | 2.79 µM (inactive) | 3.13 µM (inactive) | 3.39 µM (inactive) | 4.33 µM (inactive) | 8 µM (inactive) | 3.18 µM (inactive) | 5.87 µM (inactive) | 2.71 µM (inactive) | 11.2 µM (inactive) | 6.44 µM (inactive) | 3.83 µM (inactive) | 2.37 µM (inactive) | 2.01 µM (inactive) | 3.72 µM (inactive) | 4.13 µM (inactive) | 1.21 µM (inactive)
CCN(CCCl)CCCNc1c2ccccc2nc2ccc(OC)cc12 | 0.141 µM (active) | 0.215 µM (active) | 0.122 µM (active) | 0.0857 µM (active) | 0.344 µM (active) | 1.04 µM (active) | 0.118 µM (active) | 0.635 µM (active) | 0.418 µM (active) | 0.232 µM (active) | 0.199 µM (active) | 0.522 µM (active) | 0.0861 µM (active) | 0.0993 µM (active) | 0.0959 µM (active) | 0.388 µM (active) | 0.0158 µM (active)
COc1cc(/C=C/c2ccncc2)cc(OC)c1OC | > 100 µM (inactive) | 26.4 µM (inactive) | > 100 µM (inactive) | > 100 µM (inactive) | 38.8 µM (inactive) |  | 67.1 µM (inactive) | 39.2 µM (inactive) |  | > 100 µM (inactive) | > 100 µM (inactive) | > 100 µM (inactive) | 52.7 µM (inactive) | 42.9 µM (inactive) | 49 µM (inactive) | 63.2 µM (inactive) | 65.8 µM (inactive)
